One data set is described as follows: aqueous solubility. The conditions noted are these: for solubility and stability of the crystalline salt: single polymorph crystalline solids; for solubility: aqueous.
The nature of data set [1]: conversion of prodrug to parent drug in vivo.

The source of these data is patent US6362172B1, “Water soluble prodrugs of azole compounds” (Bristol-Myers Squibb Company, priority 2000, dated 2002).

In brackets after ≈: the same amount, converted by molar mass.

Regarding `C[C@@H](c1nc(-c2ccc(C#N)cc2)cs1)[C@@](Cn1cncn1)(OCOP(=O)(O)O)c1ccc(F)cc1F.NCCCC[C@H](N)C(=O)O.NCCCC[C@H](N)C(=O)O` [Example 3, Bis lysine salt of (2R,3R)-3-[4-(4-cyanophenyl)thiazol-2-yl]-2-(2,4-difluorophenyl)-1-(1H-1,2,4-triazol-1-yl)-2-[(dihydrogenphosphonoxy)methoxy]butane], in “aqueous solubility”, the “solubility and stability of the crystalline salt” value was “good solubility and stability”.

For `CC(C)(C)N.C[C@@H](c1nc(-c2ccc(C#N)cc2)cs1)[C@@](Cn1cncn1)(OCOP(=O)(O)O)c1ccc(F)cc1F` [Example 4, Tert-butyl amine salt of (2R,3R)-3-[4-(4-cyanophenyl)thiazol-2-yl]-2-(2,4-difluorophenyl)-1-(1H-1,2,4-triazol-1-yl)-2-[(dihydrogenphosphonoxy)methoxy]butane], the “solubility and stability of the crystalline salt” value in the data set “aqueous solubility” was “good solubility and stability”.

`C[C@@H](c1nc(-c2ccc(C#N)cc2)cs1)C(Cn1cncn1)(OCOP(=O)(O)O)c1ccc(F)cc1F` (stereo partly drawn) [Example 2, (2R,3R)-3-[4-(4-cyanophenyl)thiazol-2-yl]-2-(2,4-difluorophenyl)-1-(1H-1,2,4,- triazol-1-yl)-2-[(dihydrogenphosphonoxy)methoxy]butane]: the solubility in “aqueous solubility” (pH 4.3, aqueous buffer) is 5000 to 6000 µg/mL (≈ 9.13 to 11 mM); in the data set “aqueous solubility” (pH 7, aqueous buffer), above 10000 µg/mL. Moreover, in the data set “stability in solution”, the stability in solution entry was “stable in solution”. For the same molecule, in data set [1], the “conversion to parent drug in vivo” value is given as “readily converted to parent drug in vivo”.
